Reference: ChEMBL document CHEMBL5532698, “2,3-Dihydroquinazolin-4(1H)-ones and quinazolin-4(3H)-ones as broad-spectrum cytotoxic agents and their impact on tubulin polymerisation” (RSC Med Chem, 2024)

Key:
HT-29 = assay: Antiproliferative activity against human HT-29 cells assessed as cell growth inhibition at 25 uM incubated for 72 hrs by MTT assay relative to control; format: functional
U-87 MG = assay: Antiproliferative activity against human U87 cells assessed as cell growth inhibition at 25 uM incubated for 72 hrs by MTT assay relative to control; format: functional, U-87MG ATCC
MCF7 = assay: Antiproliferative activity against human MCF7 cells assessed as cell growth inhibition at 25 uM incubated for 72 hrs by MTT assay relative to control; format: functional
A2780 = assay: Antiproliferative activity against human A2780 cells assessed as cell growth inhibition at 25 uM incubated for 72 hrs by MTT assay relative to control; format: functional
NCI-H460 = assay: Antiproliferative activity against human NCI-H460 cells assessed as cell growth inhibition at 25 uM incubated for 72 hrs by MTT assay relative to control; format: functional
A-431 = assay: Antiproliferative activity against human A-431 cells assessed as cell growth inhibition at 25 uM incubated for 72 hrs by MTT assay relative to control; format: functional
DU-145 = assay: Antiproliferative activity against human DU-145 cells assessed as cell growth inhibition at 25 uM incubated for 72 hrs by MTT assay relative to control; format: functional
BE(2)-C = assay: Antiproliferative activity against human BE2C cells assessed as cell growth inhibition at 25 uM incubated for 72 hrs by MTT assay relative to control; format: functional
[1] = Antiproliferative activity against human SJG2 cells assessed as cell growth inhibition at 25 uM incubated for 72 hrs by MTT assay relative to control; format: functional; settings: SJ-G2
MIA PaCa-2 = assay: Antiproliferative activity against human MIA PaCa-2 cells assessed as cell growth inhibition at 25 uM incubated for 72 hrs by MTT assay relative to control; format: functional
[2] = Cytotoxicity against human MCF-10A cells assessed as cell growth inhibition at 25 uM incubated for 72 hrs by MTT assay relative to control; format: toxicity, cell-based

| SMILES | inhibition at 25 µM (HT-29) [%] | inhibition at 25 µM (U-87 MG) [%] | inhibition at 25 µM (MCF7) [%] | inhibition at 25 µM (A2780) [%] | inhibition at 25 µM (NCI-H460) [%] | inhibition at 25 µM (A-431) [%] | inhibition at 25 µM (DU-145) [%] | inhibition at 25 µM (BE(2)-C) [%] | inhibition at 25 µM [1] [%] | inhibition at 25 µM (MIA PaCa-2) [%] | inhibition at 72 h, 25 µM [2] [%] |
| --- | --- | --- | --- | --- | --- | --- | --- | --- | --- | --- | --- |
| O=C1NC(c2ccccc2[N+](=O)[O-])Nc2ccccc21 (stereo not drawn) | 28 | 16 | 16 | 33 | 35 | 36 | 27 | < 10 | 33 | 21 | 16 |
| Oc1nc(-c2ccncc2)nc2ccccc12 | 11 | < 10 | < 10 | < 10 | 15 | < 10 | < 10 | < 10 | < 10 | 10 | < 10 |
| COc1cc2c(c(OC)c1OC)-c1ccc(OC)c(=O)cc1[C@@H](NC(C)=O)CC2 [COLCHICINE] | 50 | 21 | 85 | 62 | 35 | 11 | 34 | 61 | 47 | 89 | 57 |
| O=C1NC(C2CCCCC2)Nc2ccccc21 (stereo not drawn) | 23 | 10 | 18 | 41 | < 10 | 22 | 18 | 32 | < 10 | 12 | 8 |
| O=C1NC(c2c[nH]c3ccccc23)Nc2ccccc21 (stereo not drawn) | ≥ 84 | 70 | 78 | 94 | 87 | ≥ 79 | ≥ 77 | 89 | > 100 | 79 | 90 |
| O=C1NC(c2ccc3nsnc3c2)Nc2ccccc21 (stereo not drawn) | 35 | < 10 | 49 | 60 | 21 | 25 | 22 | 64 | 29 | 22 | 41 |
| O=C1NC(c2ccc(Br)o2)Nc2ccccc21 (stereo not drawn) | < 10 | < 10 | 13 | 37 | < 10 | < 10 | < 10 | 20 | 12 | < 10 | < 10 |
| N#Cc1cccc(C2NC(=O)c3ccccc3N2)c1 (stereo not drawn) | 31 | 19 | 60 | 54 | 17 | 34 | 26 | 20 | 18 | 14 | 12 |
| O=C(O)c1ccc(C2NC(=O)c3ccccc3N2)cc1 (stereo not drawn) | 18 | 13 | 41 | < 10 | < 10 | < 10 | 36 | 12 | 10 | 14 | 8 |
| CCCC/C=C/c1nc2ccccc2c(=O)[nH]1 | < 10 | 25 | 16 | 43 | 33 | 22 | 26 | < 10 | 16 | 18 | 11 |
| O=C1NC(c2ccccc2C(=O)O)Nc2ccccc21 (stereo not drawn) | 37 | < 10 | 49 | 48 | 43 | 22 | 20 | 19 | 49 | 20 | 20 |
| O=C1NC(c2cccnc2)Nc2ccccc21 (stereo not drawn) | < 10 | < 10 | 21 | < 10 | < 10 | < 10 | < 10 | < 10 | < 10 | 11 | < 10 |
| O=C(O)c1cccc(C2NC(=O)c3ccccc3N2)c1 (stereo not drawn) | 24 | 10 | 43 | 10 | 12 | < 10 | 31 | 12 | 12 | 13 | 22 |
| O=C1NC(C2CCCC2)Nc2ccccc21 (stereo not drawn) | 22 | 11 | 35 | 39 | < 10 | 15 | 22 | 20 | < 10 | 19 | 12 |
| CCCCC1NC(=O)c2ccccc2N1 (stereo not drawn) | 32 | 9 | 25 | 59 | < 10 | 30 | 25 | 38 | < 10 | 16 | 13 |
| N#Cc1ccc(C2NC(=O)c3ccccc3N2)cc1 (stereo not drawn) | 16 | < 10 | 40 | 18 | 11 | < 10 | 10 | < 10 | 14 | 11 | 10 |
| O=C1NC(c2cc(O)c(O)c(O)c2)Nc2ccccc21 (stereo not drawn) | 49 | 29 | 56 | 36 | 19 | 21 | 40 | 27 | 10 | 34 | 51 |
| O=c1[nH]c(-c2ccccc2Br)nc2ccccc12 | 15 | 14 | 10 | 13 | 20 | 12 | 25 | 23 | 11 | 24 | 17 |
